Experiments:
VCAM1 = VCAM1 expression in isolated mesenteric venules; format: cell-based, mouse; conditions: EC Panx1 KO venules, TNFα 50 ng/mL, exogenous ATP
Experimental: Male VECadER^T2+/Panx1^fl/fl mice (Tamoxifen or Peanut oil injected) were euthanized by CO2 asphyxiation and subsequent cervical dislocation. Prior to tissue harvesting, fixation was performed by perfusing room temperature 4% paraformaldehyde (PFA) made in PBS through the heart. The mesentery was immediately excised and 2nd order venules were dissected free of surrounding fat and connective tissue and place in 4% PFA for 30 minutes before transfer to 70% ethanol for paraffin embedding. Paraffin sections (4-5 μm in thickness) were de-paraffinized and processed for immunocytochemistry as previously described^10. […]
Following stimulation with TNFα (in vitro: 10 ng/mL; ex vivo: 50 ng/mL), confluent endothelial cell monolayers or isolated mesenteric venules were homogenized in ice cold Triton extraction buffer (50 mM Tris-HCL, 150 mM NaCl , 5 mM EDTA, 1% deoxycholate, 1% NP-40 and 1% Triton-X100 in phosphate buffered saline and pH adjusted to 7.4) containing protease and phosphatase inhibitors. […] Protein concentration was quantified using the BCA method. […] Membranes were then washed and incubated with LiCOR secondary antibodies (1:10,000) and visualized and quantitated using LiCOR Odyssey. […] Data are expressed as mean±SEM (n=3 independent experiments).

HUVEC = assay: In vitro ATP release assay (luciferin:luciferase), HUVEC; format: cell-based, human; conditions: HUVEC
Experimental: (§1) In vitro Human arterial and venous ECs were seeded in 24-well plates pre-coated with 0.2% gelatin and grown to confluency. On the day of experiment, the media was removed from each well and cells were carefully washed twice with warm serum free basal EC medium supplemented with 1% BSA. Cells were then incubated in 300 μL of fresh basal EC medium supplemented with 1% BSA for 30 minutes at 37° C. to allow degradation of extracellular ATP released due to mechanical stimulation during washes. Endogenous ecto-nucleotidases were inhibited by incubating EC monolayers with 300 μM ARL 67156 (Tocris) for 30 minutes at 37° C. Cells were then stimulated with recombinant human TNFα (R&D Systems). For dose response experiments, ECs were incubated with 0.1, 1, 5, 10, 50, or 100 ng/mL recombinant TNFα for 30 minutes at 37° C. For time-course experiments, ECs were stimulated with 10 ng/mL recombinant TNFα for different time points up to 1 hour. In experiments where pharmacological inhibitors were employed, ECs were incubated with antagonists in parallel with ARL 67156 for 30 minutes. To inhibit TNFR1, ECs were incubated with the peptide antagonist of the receptor WP9QY (10 μM; Anaspec). […] Cx hemichannels were inhibited with lanthanum (La^3+; 100 μM; Sigma) and Panx1 channels were blocked with carbenoxolone (CBX; 50 μM; Sigma) and the inhibitory peptide ^10panx1 (200 μM; Genscript). […] The role of caspase activation was assessed by inhibition with the pan-caspase blocker Q-VD-OPh (100 μM; Sigma). Following stimulation with TNFα or vehicle, 150 μL of the cell supernatant was collected and immediately placed into pre-chilled 1.5 mL Eppendorf tubes on ice. All samples were centrifuged at 10,000×g for 5 minutes and 50 μL of each sample was transferred to a white, opaque 96-well plate. Using a FluoStar Omega luminometer, 50 μL of luciferin:luciferase reagent (ATP bioluminescence assay kit HSII; Roche) was injected into each well and luminescence was recorded following a 5s orbital mix. ATP concentration in each sample was calculated from a standard curve for all experiments. Data are presented as a % change in ATP release from baseline (i.e. unstimulated cells) and expressed as mean±SEM (n=5 independent experiments with triplicate measurements).

HSaVEC = assay: In vitro ATP release assay (luciferin:luciferase), HSaVEC; format: cell-based, human; conditions: HSaVEC
Experimental: as §1

Cx43 hemichannels = assay: Cell surface biotinylation after BFA, Cx43; format: cell-based, human; conditions: HUVEC and HSaVEC; BFA 5 μg/mL, 5 hour
Experimental: (§2) Cell surface biotinylation was performed as described previously^15. To deplete Cx43 hemichannels from the EC plasma membrane, venous and arterial ECs were grown to confluency in 6-well plates (Western blotting) or 24-well plates (ATP release) and treated with the vesicular exocytosis inhibitor brefeldin A (BFA; 5 μg/mL) for 5 hours at 37° C. Cells were washed once with cold 1× PBS and incubated with cold DMEM (without FBS) and 50 μM CBX at 4° C. for 30 minutes. CBX was added to prevent biotin from passing through Panx1 channels, which may label intracellular proteins. Cells were washed with PBS and incubated at 4° C. for 1 hour in cold PBS (1.5 mL/dish) containing EZ-link-sulfo-NHS-LC-biotin (1 mg/mL) and CBX (50 μM). The cells were washed again with PBS and lysed in PBS-T (PBS+0.5-1% Triton-X 100) containing protease inhibitors. Total protein was quantified using the BCA assay and equal amounts of protein were incubated with Streptavidin-agarose beads for 2 hours at 4° C. to pull down biotinylated (cell surface) proteins. Beads were then washed 5 times with 1× PBS-T, pelleted by centrifugation and proteins eluted by incubation with 5x sample buffer. Eluted proteins were subjected to SDS-PAGE and Western blotting for detection of Cx43 and Panx1.

Panx1 = assay: Cell surface biotinylation after BFA, Panx1; format: cell-based, human; conditions: HUVEC and HSaVEC; BFA 5 μg/mL, 5 hour
Experimental: as §2

[1] = BFA 5 μg/mL for 5 hours, TNFα 10 ng/mL 30 min

## Nc1ncnc2c1ncn2[C@@H]1O[C@H](COP(=O)(O)OP(=O)(O)OP(=O)(O)O)[C@@H](O)[C@H]1O [ATP, adenosine 5′ triphosphate]
VCAM1
  VCAM1 upregulation in Panx1 KO mice venules: rescued

## C[C@H]1CCC/C=C/[C@@H]2C[C@H](O)C[C@H]2[C@H](O)/C=C/C(=O)O1 [BFA, brefeldin A]
HUVEC; [1]
  TNFα-induced ATP release after Cx hemichannel depletion: unaffected
HUVEC; antagonist 30 min, WP9QY 10 μM, La3+ 100 μM, BFA 5 μg/mL, RuR 20 μM, PP2/PP3 10 μM, Q-VD-OPh 100 μM
  effect of inhibitor on TNFα-induced ATP release: ruled out the involvement
HSaVEC; [1]
  TNFα-induced ATP release after Cx hemichannel depletion: unaffected
HSaVEC; antagonist 30 min, WP9QY 10 μM, BFA 5 μg/mL, RuR 20 μM, PP2/PP3 10 μM
  effect of inhibitor on TNFα-induced ATP release: ruled out the involvement
Cx43 hemichannels
  expression of Cx43 at the EC surface: decreased
Panx1
  expression of Panx1 at the EC surface: without significantly altering
